Bridge positions count the residues as written; N and C are the ends. Square brackets hold non-standard residues; d marks the D form. Peptide text beside a SMILES is read from it. * marks the point of attachment. ξ: configuration not given here. Phe(4-CONH2) = NC(=O)c1ccc(C[C@H](N)C(=O)O)cc1; Bip = N[C@@H](Cc1ccc(-c2ccccc2)cc1)C(=O)O; Phe(3-Me) = Cc1cccc(C[C@H](N)C(=O)O)c1; Phe(4-F) = N[C@@H](Cc1ccc(F)cc1)C(=O)O; Val(3-OH) = CC(C)(O)[C@H](N)C(=O)O; 4Pal = N[C@@H](Cc1ccncc1)C(=O)O; Cha = N[C@@H](CC1CCCCC1)C(=O)O; Thr(3ξ) = CC(O)[C@H](N)C(=O)O; Carboxymethyl = O=C(O)C*; Orn = NCCC[C@H](N)C(=O)O; Aun = NCCCCCCCCCCC(=O)O; Dab = NCC[C@H](N)C(=O)O; AEEA = NCCOCCOCC(=O)O
Biological target: T1, PD-1/PD-L1 interaction (PE-labeled human PD-L1-Ig binding to Jurkat cell line over-expressing human PD-1) (Homo sapiens, UniProt Q15116)
T1 construct: expressed in transfected cells; host or cells: Jurkat
Assay: Jurkat-PD-1 Cell Binding High-Content Screening Assay (CBA)
Type: cell-based
Details: Jurkat cell line over-expressing human PD-1; PE-labeled PD-L1-Ig 20 nM final; read-out: Jurkat hPD1-PDL1 IC50
Procedure, shortened: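 First, compound is added to PD-1-expressing Jurkat cells in serum-containing DMEM and left 2 h at 37° C. Next, PE-conjugated PD-L1-Ig is introduced at 20 nM final concentration for 1 hour. Finally, cells are fixed in 4% paraformaldehyde with Hoechst 33342, washed and imaged.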

T1 sequence (Q15116 25-288): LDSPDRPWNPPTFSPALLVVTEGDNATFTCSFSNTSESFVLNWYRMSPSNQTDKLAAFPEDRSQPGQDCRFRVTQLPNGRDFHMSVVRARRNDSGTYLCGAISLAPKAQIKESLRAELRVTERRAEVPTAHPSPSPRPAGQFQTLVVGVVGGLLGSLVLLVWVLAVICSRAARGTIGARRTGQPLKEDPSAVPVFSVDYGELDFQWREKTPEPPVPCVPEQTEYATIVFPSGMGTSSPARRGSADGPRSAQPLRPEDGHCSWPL

Row | Structure (SMILES) | IC50 [nM]
1 | Cc1cccc(C[C@@H]2NC(=O)[C@H](CC(=O)O)NC(=O)[C@H](Cc3ccc(OCC(=O)O)cc3)NC(=O)[C@H](C(C)O)NC(=O)CSC[C@@H](C(=O)N[C@@H](CO)C(=O)NCCCCCCCCCCC(=O)O)NC(=O)[C@H](CO)NC(=O)[C@H](C(C)(C)O)NC(=O)[C@H](CC3CCCCC3)NC(=O)[C@H](Cc3cnc[nH]3)NC(=O)[C@@H](CC(C)C)NC(=O)[C@H](CCCN)NC(=O)[C@H](Cc3ccc(OCC(=O)O)cc3)NC(=O)[C@H](Cc3ccc(-c4ccccc4)cc3)NC(=O)[C@H](Cc3ccc(OCC(=O)O)cc3)NC2=O)c1 (stereo partly drawn) [Compound 3723] ({CH2CO}-[Thr(3ξ)]Y(Carboxymethyl)D[Phe(3-Me)]Y(Carboxymethyl)[Bip]Y(Carboxymethyl)[Orn][dL]H[Cha][Val(3-OH)]SCS[Aun]-OH; thioether N-14) | 84.1
2 | Cc1cccc(C[C@@H]2NC(=O)[C@H](CC(=O)O)NC(=O)[C@H](Cc3ccc(OCC(=O)O)cc3)NC(=O)[C@H](CCN)NC(=O)CSC[C@@H](C(=O)N[C@@H](CO)C(=O)NCCCCCCCCCCC(=O)O)NC(=O)[C@H](CO)NC(=O)[C@H](C(C)(C)O)NC(=O)[C@H](CC3CCCCC3)NC(=O)[C@H](Cc3cnc[nH]3)NC(=O)[C@@H](CC(C)C)NC(=O)[C@H](CCCN)NC(=O)[C@H](Cc3ccc(OCC(=O)O)cc3)NC(=O)[C@H](Cc3ccc(-c4ccccc4)cc3)NC(=O)[C@H](Cc3ccc(OCC(=O)O)cc3)NC2=O)c1 [Compound 3724] ({CH2CO}-[Dab]Y(Carboxymethyl)D[Phe(3-Me)]Y(Carboxymethyl)[Bip]Y(Carboxymethyl)[Orn][dL]H[Cha][Val(3-OH)]SCS[Aun]-OH; thioether N-14) | 73.9
3 | Cc1cccc(C[C@@H]2NC(=O)[C@H](CC(=O)O)NC(=O)[C@H](Cc3ccc(OCC(=O)O)cc3)NC(=O)[C@H](CCN)NC(=O)CSC[C@@H](C(=O)N[C@@H](CO)C(=O)NCCCCCCCCCCC(=O)O)NC(=O)[C@H](C(C)O)NC(=O)[C@H](C(C)(C)O)NC(=O)[C@H](CC3CCCCC3)NC(=O)[C@H](CCN)NC(=O)[C@@H](CC(C)C)NC(=O)[C@H](CCCN)NC(=O)[C@H](Cc3ccc(O)cc3)NC(=O)[C@H](Cc3ccc(-c4ccccc4)cc3)NC(=O)[C@H](Cc3ccc(C(N)=O)cc3)NC2=O)c1 (stereo partly drawn) [Compound 3725] ({CH2CO}-[Dab]Y(Carboxymethyl)D[Phe(3-Me)][Phe(4-CONH2)][Bip]Y[Orn][dL][Dab][Cha][Val(3-OH)][Thr(3ξ)]CS[Aun]-OH; thioether N-14) | 30.5
4 | Cc1cccc(C[C@@H]2NC(=O)[C@H](CC(=O)O)NC(=O)[C@H](Cc3ccc(OCC(=O)O)cc3)NC(=O)[C@H](Cc3ccncc3)NC(=O)CSC[C@@H](C(=O)N[C@@H](CO)C(=O)NCCCCCCCCCCC(=O)O)NC(=O)[C@H](C(C)O)NC(=O)[C@H](C(C)(C)O)NC(=O)[C@H](CC3CCCCC3)NC(=O)[C@H](CCN)NC(=O)[C@@H](CC(C)C)NC(=O)[C@H](CCCN)NC(=O)[C@H](Cc3ccc(O)cc3)NC(=O)[C@H](Cc3ccc(-c4ccccc4)cc3)NC(=O)[C@H](Cc3ccc(C(N)=O)cc3)NC2=O)c1 (stereo partly drawn) [Compound 3726] ({CH2CO}-[4Pal]Y(Carboxymethyl)D[Phe(3-Me)][Phe(4-CONH2)][Bip]Y[Orn][dL][Dab][Cha][Val(3-OH)][Thr(3ξ)]CS[Aun]-OH; thioether N-14) | 13.1
5 | Cc1cccc(C[C@@H]2NC(=O)[C@H](CC(=O)O)NC(=O)[C@H](Cc3ccc(OCC(=O)O)cc3)NC(=O)[C@H](CCN)NC(=O)CSC[C@@H](C(=O)NCCOCCOCC(=O)NCCCCCCCCCCC(=O)O)NC(=O)[C@H](C(C)O)NC(=O)[C@H](C(C)(C)O)NC(=O)[C@H](CC3CCCCC3)NC(=O)[C@H](CCN)NC(=O)[C@@H](CC(C)C)NC(=O)[C@H](CCCN)NC(=O)[C@H](Cc3ccc(O)cc3)NC(=O)[C@H](Cc3ccc(-c4ccccc4)cc3)NC(=O)[C@H](Cc3ccc(C(N)=O)cc3)NC2=O)c1 (stereo partly drawn) [Compound 3727] ({CH2CO}-[Dab]Y(Carboxymethyl)D[Phe(3-Me)][Phe(4-CONH2)][Bip]Y[Orn][dL][Dab][Cha][Val(3-OH)][Thr(3ξ)]C[AEEA][Aun]-OH; thioether N-14) | 50.4
6 | Cc1cccc(C[C@@H]2NC(=O)[C@H](CC(=O)O)NC(=O)[C@H](Cc3ccc(OCC(=O)O)cc3)NC(=O)[C@H](Cc3ccncc3)NC(=O)CSC[C@@H](C(=O)N[C@@H](CCN)C(=O)NCCCCCCCCCCC(=O)O)NC(=O)[C@H](C(C)O)NC(=O)[C@H](C(C)(C)O)NC(=O)[C@H](CC3CCCCC3)NC(=O)[C@H](Cc3cnc[nH]3)NC(=O)[C@@H](CC(C)C)NC(=O)[C@H](CCCN)NC(=O)[C@H](Cc3ccc(O)cc3)NC(=O)[C@H](Cc3ccc(-c4ccccc4)cc3)NC(=O)[C@H](Cc3ccc(C(N)=O)cc3)NC2=O)c1 (stereo partly drawn) [Compound 3728] ({CH2CO}-[4Pal]Y(Carboxymethyl)D[Phe(3-Me)][Phe(4-CONH2)][Bip]Y[Orn][dL]H[Cha][Val(3-OH)][Thr(3ξ)]C[Dab][Aun]-OH; thioether N-14) | 25.6
7 | Cc1cccc(C[C@@H]2NC(=O)[C@H](CC(=O)O)NC(=O)[C@H](Cc3ccc(OCC(=O)O)cc3)NC(=O)[C@H](C(C)O)NC(=O)CSC[C@@H](C(=O)N[C@@H](CCN)C(=O)NCCCCCCCCCCC(=O)O)NC(=O)[C@H](C(C)O)NC(=O)[C@H](C(C)(C)O)NC(=O)[C@H](CC3CCCCC3)NC(=O)[C@H](Cc3cnc[nH]3)NC(=O)[C@@H](CC(C)C)NC(=O)[C@H](CCCN)NC(=O)[C@H](Cc3ccc(O)cc3)NC(=O)[C@H](Cc3ccc(-c4ccccc4)cc3)NC(=O)[C@H](Cc3ccc(C(N)=O)cc3)NC2=O)c1 (stereo partly drawn) [Compound 3729] ({CH2CO}-[Thr(3ξ)]Y(Carboxymethyl)D[Phe(3-Me)][Phe(4-CONH2)][Bip]Y[Orn][dL]H[Cha][Val(3-OH)][Thr(3ξ)]C[Dab][Aun]-OH; thioether N-14) | 30.3
8 | Cc1cccc(C[C@@H]2NC(=O)[C@H](CC(=O)O)NC(=O)[C@H](Cc3ccc(OCC(=O)O)cc3)NC(=O)[C@H](Cc3ccncc3)NC(=O)CSC[C@@H](C(=O)NCCOCCOCC(=O)NCCCCCCCCCCC(=O)O)NC(=O)[C@H](C(C)O)NC(=O)[C@H](C(C)(C)O)NC(=O)[C@H](CC3CCCCC3)NC(=O)[C@H](CCN)NC(=O)[C@@H](CC(C)C)NC(=O)[C@H](CCCN)NC(=O)[C@H](Cc3ccc(O)cc3)NC(=O)[C@H](Cc3ccc(-c4ccccc4)cc3)NC(=O)[C@H](Cc3ccc(C(N)=O)cc3)NC2=O)c1 (stereo partly drawn) [Compound 3730] ({CH2CO}-[4Pal]Y(Carboxymethyl)D[Phe(3-Me)][Phe(4-CONH2)][Bip]Y[Orn][dL][Dab][Cha][Val(3-OH)][Thr(3ξ)]C[AEEA][Aun]-OH; thioether N-14) | 22.8
9 | Cc1cccc(C[C@@H]2NC(=O)[C@H](CC(=O)O)NC(=O)[C@H](Cc3ccc(OCC(=O)O)cc3)NC(=O)[C@H](CCN)NC(=O)CSC[C@@H](C(=O)N[C@@H](CCN)C(=O)NCCCCCCCCCCC(=O)O)NC(=O)[C@H](CO)NC(=O)[C@H](C(C)(C)O)NC(=O)[C@H](CC3CCCCC3)NC(=O)[C@H](Cc3cnc[nH]3)NC(=O)[C@@H](CC(C)C)NC(=O)[C@H](CCCN)NC(=O)[C@H](Cc3ccc(OCC(=O)O)cc3)NC(=O)[C@H](Cc3ccc(-c4ccccc4)cc3)NC(=O)[C@H](Cc3ccc(F)cc3)NC2=O)c1 [Compound 3731] ({CH2CO}-[Dab]Y(Carboxymethyl)D[Phe(3-Me)][Phe(4-F)][Bip]Y(Carboxymethyl)[Orn][dL]H[Cha][Val(3-OH)]SC[Dab][Aun]-OH; thioether N-14) | 16.9
10 | Cc1cccc(C[C@@H]2NC(=O)[C@H](CC(=O)O)NC(=O)[C@H](Cc3ccc(F)cc3)NC(=O)[C@H](CCN)NC(=O)CSC[C@@H](C(=O)N[C@@H](CCN)C(=O)NCCCCCCCCCCC(=O)O)NC(=O)[C@H](CO)NC(=O)[C@H](C(C)(C)O)NC(=O)[C@H](CC3CCCCC3)NC(=O)[C@H](Cc3cnc[nH]3)NC(=O)[C@@H](CC(C)C)NC(=O)[C@H](CCCN)NC(=O)[C@H](Cc3ccc(OCC(=O)O)cc3)NC(=O)[C@H](Cc3ccc(-c4ccccc4)cc3)NC(=O)[C@H](Cc3ccc(OCC(=O)O)cc3)NC2=O)c1 [Compound 3732] ({CH2CO}-[Dab][Phe(4-F)]D[Phe(3-Me)]Y(Carboxymethyl)[Bip]Y(Carboxymethyl)[Orn][dL]H[Cha][Val(3-OH)]SC[Dab][Aun]-OH; thioether N-14) | 56.2
11 | Cc1cccc(C[C@@H]2NC(=O)[C@H](CC(=O)O)NC(=O)[C@H](Cc3ccc(OCC(=O)O)cc3)NC(=O)[C@H](Cc3ccncc3)NC(=O)CSC[C@@H](C(=O)N[C@@H](CCN)C(=O)NCCCCCCCCCCC(=O)O)NC(=O)[C@H](CO)NC(=O)[C@H](C(C)(C)O)NC(=O)[C@H](CC3CCCCC3)NC(=O)[C@H](Cc3c[nH]cn3)NC(=O)[C@@H](CC(C)C)NC(=O)[C@H](CCCN)NC(=O)[C@H](Cc3ccc(OCC(=O)O)cc3)NC(=O)[C@H](Cc3ccc(-c4ccccc4)cc3)NC(=O)[C@H](Cc3ccc(F)cc3)NC2=O)c1 [Compound 3733] ({CH2CO}-[4Pal]Y(Carboxymethyl)D[Phe(3-Me)][Phe(4-F)][Bip]Y(Carboxymethyl)[Orn][dL]H[Cha][Val(3-OH)]SC[Dab][Aun]-OH; thioether N-14) | 115
12 | Cc1cccc(C[C@@H]2NC(=O)[C@H](CC(=O)O)NC(=O)[C@H](Cc3ccc(F)cc3)NC(=O)[C@H](Cc3ccncc3)NC(=O)CSC[C@@H](C(=O)N[C@@H](CCN)C(=O)NCCCCCCCCCCC(=O)O)NC(=O)[C@H](CO)NC(=O)[C@H](C(C)(C)O)NC(=O)[C@H](CC3CCCCC3)NC(=O)[C@H](Cc3c[nH]cn3)NC(=O)[C@@H](CC(C)C)NC(=O)[C@H](CCCN)NC(=O)[C@H](Cc3ccc(OCC(=O)O)cc3)NC(=O)[C@H](Cc3ccc(-c4ccccc4)cc3)NC(=O)[C@H](Cc3ccc(OCC(=O)O)cc3)NC2=O)c1 [Compound 3734] ({CH2CO}-[4Pal][Phe(4-F)]D[Phe(3-Me)]Y(Carboxymethyl)[Bip]Y(Carboxymethyl)[Orn][dL]H[Cha][Val(3-OH)]SC[Dab][Aun]-OH; thioether N-14) | 128

— US20260022142A1, “MACROCYCLIC IMMUNOMODULATORS” (Bristol-Myers Squibb Company, priority 2022, published 2026)
